Assay [1] relates to MCF-7 cancer cell line. Put plainly: Sulforhodamine-B cytotoxicity assay, MCF-7. It counts as cell-based. Particulars: Homo sapiens, MCF7, 144 h, 6 days of treatment. How it is done: (§1) To assess the effect of the different drugs on cell viability we used the sulforhodamine-B colorimetric assay. Cells were resuspended and seeded at a density of 5 × 10^3 cells/well onto 12-well plates kept growing for 24 h. After that, the compounds were added at different concentrations to the cells (0.5, 0.7, 1, 2, 5, and 10 μM) (Figure 1). After 72 h treatment, the medium was discarded and fresh medium and treatment was added. Cells were maintained for 3 days more with the treatment. Finally, they were processed as previously described ([Boulaiz et al., 2003b]) using a Titertek Multiscan apparatus (Flow Laboratories, Irvine, United Kingdom) at 492 nm. We used the cell number for each cell stock before each cell growth experiment to set the linearity of the sulforhodamine-B assay. To calculate the IC50 values we used semilogarithmic dose–response curves to make a linear interpolation. All of the experiments were performed in triplicate wells for each treatment and were repeated at least twice.
A general note: The SRB assay estimates cell density from bound dye.

The test system of assay [2] is MCF-7TG cancer cell line. Nature of the assay: Sulforhodamine-B cytotoxicity assay, MCF-7TG (gef-expressing). Particulars: Homo sapiens, 144 h; 6 days of treatment, gef gene induced with 1 μM Dex. It counts as cell-based.
Excerpt: (§2) The breast cancer cell line MCF-7 was kindly provided by Dr. N. Olea of the Sánchez Mora Tumoural Biology Institute (University Hospital of Granada). The MCF-7TG cell line, a gef-expressing breast cancer cell line controlled by a mouse mammary tumor virus promoter and inducible by dexamethasone (Dex) was derivates from MCF-7 cells following methodology previously described by us ([Boulaiz et al., 2003b]). A selected MCF-7pMAMneo empty vector positive clone was also used. Non-tumoral breast cell line MCF-10A (ATCC: CRL-10317) was provided by the Cell Bank of the University of Granada (Granada, Spain). MCF-7 cells were cultured in a humidified atmosphere at 37°C with 5% CO2 and Dulbecco’s modified Eagle Medium (DMEM) (Gibco, Grand Island, NY, United States) with 10% heat-inactivated fetal bovine serum (FBS) (Gibco), 2.7% sodium bicarbonate, 2% L-glutamine, 1% Hepes buffer, 500 mg/L ampicillin and 40 mg/L gentamicin. MCF-7TG cells were grown in the same medium described above supplemented by 200 μg/ml geneticin G418 and 1μM Dex to induce gef gene expression. MCF-10A grown in DMEM/F12 medium with 5% horse serum (HS), 0.02 μg/ml epithelial growth factor (EGF), 0.5 μg/ml hydrocortisone, 100 ng/ml cholera toxin and 0.01 μg/ml insulin.
as §1

In assay [3] the test system is epithelial MCF-10A cell line. Nature of the assay: Sulforhodamine-B cytotoxicity assay, MCF-10A. It is filed as cell-based. Particulars: Homo sapiens, non-tumoral breast cell line.
Excerpt: as §2, §1

For assay [4], the system named is MCF-7 cells. Nature of the assay: In vitro cell proliferation assay over 15 days, MCF-7. It counts as cell-based, human. The settings on record: MCF-7, 15 days of treatment. How it is done:
(§3) MCF-7, MCF-7TG, and MCF-7pMAMneo cells were seeded at a density of 25 × 10^3/well into six-well plates using the culture conditions above mentioned. After 24 h, fresh medium was added to the cells and treated with IC50 and 2^∗IC50 of drugs cited in Table 1. No treatment was added to the control groups. To ensure the expression of the gef gene, MCF-7TG cells medium was always treated with 1 μM Dex. Cells in culture were always treated with or without drugs every 3 days when medium was changed up to the end of the assay. Four plates were used to run each treatment and time point (0, 3, 6, 9, 12, and 15 days of treatment). After the end of the treatment, we used sulforhodamine-B to stain the cells as previously described.

The test system of assay [5] is MCF-7TG cells. Put plainly: In vitro cell proliferation assay over 15 days, MCF-7TG. It counts as cell-based, human. The settings on record: for growth inhibition: MCF-7TG (gef expressed), 15 days of treatment; for type of synergistic effect with the gef gene: combined with gef gene, proliferation over 15 days. The protocol: as §3
Assay [6] has as its system MCF-7 cell line. Put plainly: Annexin V-FITC/PI apoptosis flow cytometry, MCF-7. It is filed as cell-based, human. Particulars: MCF-7, 72 h, IC50 of compound; control 8.15 ± 0.40%. An excerpt: (§4) Apoptosis was detected using the apoptosis detection kit for annexin V-FITC (Pharmingen, San Diego, CA, United States) by flow cytometry according to [Boulaiz et al. (2003a)]. […] The results were representative of three independent experiments.
In general terms: Flow cytometry measures light scatter and fluorescence of single cells or particles in a stream.

The test system of assay [7] is MCF-7TG cell line. Nature of the assay: Annexin V-FITC/PI apoptosis flow cytometry, MCF-7TG. It counts as cell-based, human. Particulars: 72 h, IC50 of compound, control 0.74 ± 0.05%.
Excerpt: as §4

The test system of assay [8] is MCF-7 cell line. Nature of the assay: Flow cytometric analysis of the cell cycle, MCF-7. It is filed as cell-based, human. Particulars: MCF-7, 72 h, IC50 of compound; for S phase cells: control 17.41 ± 0.81%; for G2/M phase cells: control 17.56 ± 0.87%. How it is done: (§5) Cells were grown at 70% confluence and treated with either DMSO alone or with different concentrations of the compounds corresponding to their IC50 values. Flow cytometry analysis was carried out after 72 h of treatment as described ([Marchal et al., 2004]). The results were representative of three independent experiments.

Assay [9] deals with MCF-7TG cell line. Nature of the assay: Flow cytometric analysis of the cell cycle, MCF-7TG. It is filed as cell-based, human. The settings on record: 72 h, IC50 of compound. How it is done: as §5

Several values for one entry are separate records, joined by “and”; a condition that tells them apart may be missing. Equal values may be shown once.

As usually defined, the IC50 is the concentration needed to halve the response being measured. Lower therefore signals higher potency. Consider `O=[N+]([O-])c1ccc(S(=O)(=O)N2CC(n3cnc4c(Cl)nc(Cl)nc43)OCc3ccccc32)cc1` (racemic) [Bozepinib, (R,S)-2,6-dichloro-9-[1-(p-nitrobenzenesulfonyl)-1,2,3,5-tetrahydro-4,1-benzoxazepine-3-yl]-9H-purine], for which the IC50 in assay [1] worked out at 1.23 ± 0.05 µM; in assay [2], 0.56 ± 0.01 µM; in assay [3], 6.33 ± 0.03 µM. Further, the growth inhibition in assay [4] (2*IC50 of compound) worked out at 89.42%; in assay [4] (IC50 of compound), 76%; in [5] (IC50 of compound) it was 81.42%. The “type of synergistic effect with the gef gene” value (“type of synergistic effect” below) in assay [5] is given as “enhanced synergetic effect”. Also, the “cells in early apoptosis” value in [6] worked out at 40.41 ± 2.02%. This compound gave a necrotic cells in assay [7] of 47.03 ± 1.07%. The compound also came in with a S phase cells in [8] of 12.29 ± 0.90%. The G2/M phase cells in [8] turned out to be 22.98 ± 1.14%. For the same compound, the G0/G1 phase cells in assay [9] was 85.98 ± 4.29%.

In the case of `O=[N+]([O-])c1ccccc1S(=O)(=O)N1CC(n2cnc3nc(Cl)nc(Cl)c32)OCc2ccccc21` (stereo not drawn) [FC-30b2], the values for the IC50 in assay [1], in assay [2] and in [3] were 7.75 ± 0.06 µM, 1.8 ± 0.08 µM and 9.9 ± 0.08 µM, respectively. Besides, the growth inhibition was found to be 96% in assay [4] (2*IC50 of compound), 82% in assay [4] (IC50 of compound) and 81.14% in [5] (IC50 of compound). Also, in assay [5], the “type of synergistic effect” value is on record as “enhanced synergetic effect”. The “cells in early apoptosis” value in assay [6] is listed as 73.27 ± 3.66%. For the same compound, the necrotic cells in assay [7] was found to be 65.09 ± 2.47%. In addition, the S phase cells in [8] is on record as 0.63 ± 0.01%. The compound further returned a G2/M phase cells in [8] of 33.22 ± 1.66%. The G0/G1 phase cells in assay [9] came out at 72.96 ± 3.50%.

`O=[N+]([O-])c1ccccc1S(=O)(=O)N1CC(n2cnc3c(Cl)nc(Cl)nc32)OCc2ccccc21` (stereo not drawn) [FC-26c]: the IC50 in assay [1] turned out to be 2.6 ± 0.1 µM; in assay [2] it was 0.65 ± 0.03 µM; in [3] it was 9.187 ± 0.08 µM. The growth inhibition in assay [4] (IC50 of compound) amounted to 61.6%. The “type of synergistic effect” value in [5] is given as “enhanced synergetic effect”. For the same compound, the “cells in early apoptosis” value in assay [6] was 37.63 ± 1.88%. The same compound registered a necrotic cells in assay [7] of 54.38 ± 2.3%. Moreover, in [9], the G0/G1 phase cells stood at 81.25 ± 4.05%.

As for `COC(CN(c1ccccc1CO)S(=O)(=O)c1ccc([N+](=O)[O-])cc1)n1cnc2c(Cl)nc(Cl)nc21` (stereo not drawn) [ACG-812c-F1], the IC50 in assay [1] came out at 9.43 ± 0.07 µM; in assay [2], 8.75 ± 0.18 µM; in assay [3], 17.48 ± 0.12 µM.

For `Nc1ccccc1S(=O)(=O)N1CC(n2cnc3c(Cl)nc(Cl)nc32)OCc2ccccc21` (stereo not drawn) [FC-29b], the IC50 in [1] was 5.02 ± 0.12 µM; in assay [2], 1.9 ± 0.02 µM; in assay [3], 4.04 ± 0.09 µM. In addition, the growth inhibition was 70.48% and 70% in [4] (2*IC50 of compound); 61.91% in assay [4] (IC50 of compound); 70.48% and 70% in assay [5] (2*IC50 of compound); 60% in [5] (IC50 of compound). Also, the “type of synergistic effect” value in assay [5] is recorded as “additive synergetic effect”. Further, in [6], the “cells in early apoptosis” value is 57.62 ± 2.88%. The compound further showed a necrotic cells in assay [7] of 51.92 ± 2.09%. This compound had a S phase cells in [8] of 9.47 ± 0.30%. Moreover, the G2/M phase cells in assay [8] is on record as 26.12 ± 1.20%. Also, the G0/G1 phase cells in assay [9] is given as 80.07 ± 4.01%.

For the compound `O=S(=O)(c1ccccc1NO)N1CC(n2cnc3c(Cl)nc(Cl)nc32)OCc2ccccc21` (stereo not drawn) [FC-29d], the IC50 turned out to be 8.98 ± 0.3 µM in [1], 6.7 ± 0.01 µM in assay [2] and 47.12 ± 0.05 µM in assay [3].
